Experimental data: patent publication US12310964B2, “Compositions and methods for the treatment of Lowe Syndrome” (Purdue Research Foundation, priority 2020, dated 2025)

What was measured:
mTOR pathway in LS cells = assay: Western blotting of PI3K/Akt/mTOR pathway; type: cell-based, Human
Procedure: Normal and LS cells were seeded on 100 mm plates and grown to 60-70% confluency in complete media. Then media was exchanged with 0.1% serum DMEM media with DMSO or 10 nM rapamycin for 12 hrs. The cells were washed twice with ice-cold PBS, collected by scraping cells in 200 μl/plate of lysis buffer (25 mM HEPES-KOH, pH7.4, 250 mM NaCl, 1% Triton-X-100 supplement with phosphatase and protease inhibitors), and lysed by passing the cells 10 times through a 26G1/2 needle. The lysates were centrifuged at 14,000×g for 20 min at 4° C., and the supernatant fractions were collected. The samples were analyzed by SDS-PAGE using 7% or 10% polyacrylamide gels and transferred to nitrocellulose membranes. The membranes were blocked with 5% skim milk in PBST (1× phosphate-buffered saline with Tween® detergent) and immunoblotted with the indicated primary and HRP-conjugated secondary antibodies.
The activation of the Akt and mTOR signaling pathways in LS cells treated or not with rapamycin was examined. Cell lysates were prepared, resolved by SDS-PAGE and the presence of phosphorylated and dephosphorylated key elements of the Akt and mTOR pathways were investigated by Western blotting with specific antibodies (FIG. 5D).

LS patient cells [1] = assay: Ciliogenesis assay; type: cell-based, Human; details: serum starvation
Procedure: Cells were seeded on glass cover slips and grown for 24 h in complete media. Then media was replaced by 0.1% serum DMEM (starvation media) containing vehicle or the drug to induce ciliogenesis for the indicated times. Cells were then fixed in 4% formaldehyde—PBS for 10 min and immuno-labeled with anti-acetylated tubulin antibody (see Table 2). At least 50 cells were imaged for every experiment and experiments were repeated at least thrice. The fraction of cells displaying cilia and cilia length were determined as described previously (Coon et al. (2012), supra).

LS patient cells [2] = assay: Cell spreading assay after a predetermined time-point (cell area); type: cell-based, Human; details: for LS cell spreading phenotype: LS patient fibroblasts, 30 min after seeding on fibronectin
Procedure: Two approaches to monitor cell spreading were used: after a predetermined time-point and at multiple time points.
1) Spreading after a Predetermined Time-Point.
(§1) Human dermal fibroblasts (12 h after seeding) were treated with the indicated drug (or vehicle) in 0.1% serum for the indicated time. After drug treatment, the cells were lifted with 20 mM EDTA (ethylenediaminetetraacetic acid) in PBS (phosphate-buffered saline), pelleted at 300×g for 5 min and resuspended in 1% serum in the presence of drug or vehicle. Cell suspensions were then set in a rotator for 1 hour before seeding them on fibronectin-coated coverslips for 30 min, undisturbed, to allow attachment and spreading. After spreading, coverslips were gently rinsed with PBS and fixed in 4% formaldehyde for 10 min at room temperature. Cells were stained with rhodamine—phalloidin and imaged by epifluorescence microscopy. At least 50 cells were quantified per experiment by tracing and measuring cell areas by using the magic wand tool in ImageJ software (National Institutes of Health (NIH), Bethesda, MD, USA).
(§2) Cell spreading on fibronectin-coated surfaces of cells treated with RhoA modulators in comparison to untreated cells was observed. Cells were fixed and stained with fluorescently labeled-phalloidin after 30 min spreading time at 37° C. Following imaging, cell area measurements were performed.

LS patient cells [3] = assay: Viability/toxicity assessment (cell counting, morphology, MTT); type: cell-based, Human; details: for toxicity (viability and stress-induced changes in morphology): LS cells after exposure to statins
Procedure: Cells were incubated with the indicated drugs for the specified times at different concentrations as described in low serum (0.1%) media to avoid substantial protein-mediated drug sequestration. In addition to cell counting post-treatment, a sample of cells seeded on fibronectin-coated coverslips was fixed and stained with fluorescein isothiocyanate (FITC)-phalloidin and DAPI (4′,6-diamidino-2-phenylindole) for cell morphology inspection. Viability was monitored by performing MTT (3-(4,5-dimethylthiazol-2-yl)-2,5-diphenyltetrazolium bromide) assays as follows: Following treatment of cells (in triplicates) with indicated drugs at different concentrations for specified times, media were aspirated and replaced with MTT solution (freshly prepared at 0.5 mg/ml in complete media) and incubated for 1.5 h. Additionally, a blank control with only MTT reagent containing no cells was also prepared. Following incubation, solution was aspirated and MTT was immediately solubilized using 1 mL DMSO (dimethylsulfoxide) (per well) by gentle pipetting. Absorbance values of solubilized MTT solution from the different wells were measured at 570 nm using a spectrophotometer.

[4] = current approved rapamycin treatments; cited from earlier work
HK2 OCRL1 K.O. cells = assay: Indirect immunofluorescence for lysosomes (Lamp2, autolysosomes); type: cell-based, Human; details: rapamycin (10 nM) or WYE (1 μM)
Procedure: Following treatment with drugs, cells were washed and fixed with 4% formaldehyde-PBS for 10 min and immune-labeled for LAMP2 (lysosome-associated membrane protein 2). Random fields were imaged using a Zeiss Axiovert inverted microscope using a 40× objective with constant fluorescence exposure times.

[5] = system: HK2 and HEK293T OCRL1 K.O. cells; assay: Cell spreading assay in kidney knock-out cells; type: cell-based, Human; details: HK2 and HEK293T OCRL1 K.O. vs wild-type
Procedure: Normal (GM07492) and LS primary dermal fibroblasts (GM01676 and GM03265) were obtained from the NIHGMS Human Genetic Cell Repository (Coriell Institute for Medical Research, Camden, NJ, USA). Cells were maintained in Dulbecco's Modified Eagle Medium (DMEM), streptomycin/penicillin, 2 mM L-glutamine and 15% fetal bovine serum (FBS) at 37° C. in a 5% CO2 incubator. When needed, cells were transferred to fibronectin-coated surfaces (plates or coverslips) prepared by incubation with 10 μg/mL fibronectin for 2 h at 37° C. Normal human proximal tubule epithelial (HK2) and human embryonic kidney epithelial 293T (HEK293T) cells obtained from ATCC were grown in DMEM, streptomycin/penicillin, 2 mM L-glutamine and 10% FBS at 37° C. in a 5% CO2 incubator. OCRL1^−/− (OCRL K.O) HK2 and HEK293T cells were prepared by GenScript, Inc., Piscataway, NJ, USA, and maintained under the same conditions as their normal counterparts. Characterization of these cell lines has been described before (Hsieh et al., PLoS One 10.1371/jounal.pone.0192635 (Feb. 14, 2018)).
Human dermal fibroblasts (12 h after seeding) were treated with the indicated drug (or vehicle) in 0.1% serum for the indicated time. […] At least 50 cells were quantified per experiment by tracing and measuring cell areas by using the magic wand tool in ImageJ software (National Institutes of Health (NIH), Bethesda, MD, USA).

Normal fibroblasts = assay: Cell spreading assay after a predetermined time-point (cell area); type: cell-based, Human; details: 30 min after seeding on fibronectin
Procedure: as §1, §2

normal cells = assay: Cell adhesion by time-lapse microscopy; type: cell-based, Human
Procedure: Human dermal fibroblasts were treated as described above, seeded on fibronectin-coated LabTek chambers, and allowed to attach and spread. Cells were imaged at intervals of 10 min after seeding for 8 h using 20× objective in a Zeiss Axiovert inverted microscope. Number of detaching cells was quantified every 10 min up to the first hour by using the cell counter tool in ImageJ (NIH). To determine spreading kinetics, individual cells were tracked in each time lapse image and were scored from 1-5 based on general cell morphology. Briefly, cells that were just attached and looked circular with no protrusions or visible extensions received a score of 1. Cells with needle-like (filopodia) projections were scored 2, cells with lamellopodia-like extensions were scored 3, cells with more extended lamellopodia-like extensions and increased cell area were given a score of 4, and a further increase in cell area, often accompanied by isotropic spread morphology, was given a score of 5. Alternatively, cells were treated as described above and allowed to attach on fibronectin-coated dishes. Immediately after seeding, the cells were imaged with a 10× objective simultaneously using up to 3 Cytosmart Imaging Systems (Lonza, Basel, Switzerland) at intervals of 30 s for 2 h. Number of cells attached was quantified every 10 min up to the first hour using the Cell Counter tool in ImageJ software (NIH).

CC(C)n1nc(-c2ccc3oc(N)nc3c2)c2c(N)ncnc21 [INK128]
mTOR activation / phosphorylation (mTOR pathway in LS cells): able to decrease mTOR phosphorylation
ciliogenesis / PC assembly defects in LS cells (LS patient cells [1]): rescue ciliogenesis defects in LS cells

O=C(O)C[C@H](O)C[C@H](O)/C=C/c1c(C2CC2)nc2ccccc2c1-c1ccc(F)cc1 [pitavastatin]
LS cell spreading phenotype (LS patient cells [2]): mitigated to a certain extent the LS spreading phenotype
ranking of statins: rescue effect over needed dose and toxicity (LS patient cells [2]; LS spreading defects): rosuvastatin>pitavastatin>>>simvastatin and others
toxicity (viability and stress-induced changes in morphology) (LS patient cells [3]): substantially toxic

CC(C)c1c(C(=O)Nc2ccccc2)c(-c2ccccc2)c(-c2ccc(F)cc2)n1CC[C@@H](O)C[C@@H](O)CC(=O)O [atorvastatin]
LS cell spreading phenotype (LS patient cells [2]): mitigated to a certain extent the LS spreading phenotype

COCc1c(C(C)C)nc(C(C)C)c(/C=C/[C@@H](O)C[C@@H](O)CC(=O)O)c1-c1ccc(F)cc1 [cerivastatin]
toxicity (viability and stress-induced changes in morphology) (LS patient cells [3]): substantially toxic

CO[C@H]1C[C@@H]2CC[C@@H](C)[C@@](O)(O2)C(=O)C(=O)N2CCCC[C@H]2C(=O)O[C@H]([C@H](C)C[C@@H]2CC[C@@H](O)[C@H](OC)C2)CC(=O)[C@H](C)/C=C(\C)[C@@H](O)[C@@H](OC)C(=O)[C@H](C)C[C@H](C)/C=C/C=C/C=C/1C [rapamycin]
toxicity on LS cells (decrease in viability, MTT) (LS patient cells [3]; after 72 h-treatment): 10-15%
plasma levels [4]: 10 nM

CNC(=O)Nc1ccc(-c2nc(N3CC4CCC(C3)O4)c3cnn(C4CCC5(CC4)OCCO5)c3n2)cc1 [WYE132]
mTOR activation / phosphorylation (mTOR pathway in LS cells): able to decrease mTOR phosphorylation
autolysosome deficiencies (fraction of cells displaying autolysosomes) (HK2 OCRL1 K.O. cells): can be rescued
ciliogenesis / PC assembly defects in LS cells (LS patient cells [1]): rescue ciliogenesis defects in LS cells

C[C@@H]1COCCN1c1cc(=O)n2c(n1)N(Cc1cncc(Cl)c1)[C@H](C(F)(F)F)CC2 [SAR405]
mTOR activation / phosphorylation (mTOR pathway in LS cells): did not affect mTOR activation
ciliogenesis / PC assembly defects in LS cells (LS patient cells [1]): had no effect on ciliogenesis by LS cells

O=S(=O)(c1cccc2cnccc12)N1CCCNCC1 [fasudil]
LS cell spreading phenotype (LS patient cells [2]): in contrast to the ROCK-inhibitor fasudil, the MLCK-inhibitor ML-7 was able to mitigate

O=S(=O)(c1cccc2c(I)cccc12)N1CCCNCC1 [ML-7]
LS cell spreading phenotype (LS patient cells [2]): able to mitigate the cell spreading phenotype

C3 transferase [RhoA inhibitor]
cell spreading / membrane remodeling phenotype in cells from another LS patient (LS patient cells [2]; LS2 cells, FIG. 8A): confirmed
LS cell spreading phenotype (LS patient cells [2]): ameliorated the cell spread phenotype
cell spreading phenotype in OCRL1 K.O. kidney cells [5]: confirmed

CSCC[C@H](NC(=O)c1ccc(NC[C@@H](N)CS)cc1-c1ccccc1)C(=O)O [farnesylation inhibitor]
LS cell spreading phenotype (LS patient cells [2]): rescue the cell spreading phenotype of LS patient cells

CCCC[C@@H](C=O)NC(=O)[C@H](CC(C)C)NC(=O)OCc1ccccc1 [RhoA activator, calpeptin]
LS cell spreading phenotype (LS patient cells [2]): worsened the already impaired spreading ability of LS cells
cell spreading of normal cells (Normal fibroblasts): displayed a “LS-like” cell spreading phenotype
proportion of de-attaching cells (normal cells): increased proportion of de-attaching cells
